Where two headings read alike, the source gives them in different places.
What was measured:
SLC35G3 [1] = target: T1, SLC35G3 (Homo sapiens, UniProt Q8N808)
SLC35G3 [2] = target: T1, SLC35G3; assay: Uptake ratio screen, SLC35G3-overexpressing HEK293 over empty vector cells; assay type: cell-based; set-up: by amplifying the entire gene-of-interest within the HEK293 genome via a long-range PCR
SLC22A18 = target: T2, SLC22A18 (Homo sapiens, UniProt Q96BI1); assay: Uptake ratio screen, SLC22A18-overexpressing HEK293 over empty vector cells; assay type: cell-based; details: 2.5 μM (nicotine 10 μM), 2 min
T2 construct: by amplifying the entire gene-of-interest within the HEK293 genome via a long-range PCR
T2 sequence (Q96BI1 whole entry): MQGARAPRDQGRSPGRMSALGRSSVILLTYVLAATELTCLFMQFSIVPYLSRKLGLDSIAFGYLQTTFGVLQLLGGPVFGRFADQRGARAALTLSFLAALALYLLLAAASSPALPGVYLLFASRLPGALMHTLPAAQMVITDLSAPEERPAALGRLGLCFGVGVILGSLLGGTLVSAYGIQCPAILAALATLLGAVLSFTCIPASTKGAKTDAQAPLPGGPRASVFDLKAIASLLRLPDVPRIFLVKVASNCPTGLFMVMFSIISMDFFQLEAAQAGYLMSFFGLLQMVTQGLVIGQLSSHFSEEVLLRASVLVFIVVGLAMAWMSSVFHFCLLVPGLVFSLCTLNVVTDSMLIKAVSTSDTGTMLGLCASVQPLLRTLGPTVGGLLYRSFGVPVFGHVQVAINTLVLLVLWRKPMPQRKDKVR
Method: (§1) Typically discussed substrates of the proton organic-cation antiporter ([14]) are highlighted in dark green in Figure 1.
(§2) In preparation for transport experiments, 24-well plates were pre-coated with poly-D-lysine (Sigma-Aldrich) and 300,000 cells were plated per well and incubated for 48 h. Firstly, the 24-well plate was placed on a heating plate at 37 °C, and the cells were washed with 37 °C HBSS^+ buffer (Hank’s balanced salt solution supplemented with 10 mM Hepes and adjusted to pH 7.4; Thermo Fisher Scientific). The substance-of-interest, which was diluted in 37 °C HBSS^+ to a desired concentration, was added to the cells for exactly 2 min. […] For variations in seeded cell numbers between the cell lines, several wells were lysed in RIPA buffer and used for total protein quantification using a bicinchoninic assay ([74]) and bovine serum albumin as calibration.
(§3) The intracellular drug concentrations after transport experiments were analyzed by high-performance liquid chromatography coupled to tandem mass spectrometry analysis. […] After separation, the detection of substances was performed with an API 4000 tandem mass spectrometer (AB SCIEX, https://sciex.com/support/software-support/software-downloads), followed by quantification of results with the Analyst software (AB SCIEX, version 1.6.2). […]

SLC19A2 = target: T3, SLC19A2 (Homo sapiens, UniProt O60779); assay: Uptake ratio screen, SLC19A2-overexpressing HEK293 over empty vector cells; assay type: cell-based; details: 2.5 μM, 2 min
T3 construct: expressed in transfected cells
T3 sequence (O60779 1-497): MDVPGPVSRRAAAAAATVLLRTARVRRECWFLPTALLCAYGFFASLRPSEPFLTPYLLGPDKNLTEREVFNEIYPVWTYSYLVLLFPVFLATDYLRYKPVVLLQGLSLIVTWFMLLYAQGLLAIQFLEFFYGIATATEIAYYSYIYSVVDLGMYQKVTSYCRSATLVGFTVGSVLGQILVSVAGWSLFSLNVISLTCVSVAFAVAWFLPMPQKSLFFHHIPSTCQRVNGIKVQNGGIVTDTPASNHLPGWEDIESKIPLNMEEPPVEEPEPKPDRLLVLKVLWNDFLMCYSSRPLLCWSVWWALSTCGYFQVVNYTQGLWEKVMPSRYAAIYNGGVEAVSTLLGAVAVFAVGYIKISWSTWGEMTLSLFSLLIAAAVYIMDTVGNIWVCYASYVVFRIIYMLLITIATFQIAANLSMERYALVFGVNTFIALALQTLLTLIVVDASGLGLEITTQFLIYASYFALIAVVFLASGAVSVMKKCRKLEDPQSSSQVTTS
Method: as §1
(§4) In preparation for transport experiments, 24-well plates were pre-coated with poly-D-lysine (Sigma-Aldrich) and 300,000 cells were plated per well and incubated for 48 h. Firstly, the 24-well plate was placed on a heating plate at 37 °C, and the cells were washed with 37 °C HBSS^+ buffer (Hank’s balanced salt solution supplemented with 10 mM Hepes and adjusted to pH 7.4; Thermo Fisher Scientific). The substance-of-interest, which was diluted in 37 °C HBSS^+ to a desired concentration, was added to the cells for exactly 2 min. […] The uptake was stopped with ice-cold HBSS^+, and the 24-well plate was removed from the heating plate. The cells were washed twice with the cold HBSS^+ before they were lysed for 15 min with 80% (v/v) acetonitrile containing the respective internal standard for mass spectrometry. For variations in seeded cell numbers between the cell lines, several wells were lysed in RIPA buffer and used for total protein quantification using a bicinchoninic assay ([74]) and bovine serum albumin as calibration.
The intracellular drug concentrations after transport experiments were analyzed by high-performance liquid chromatography coupled to tandem mass spectrometry analysis. The HPLC consisted of a Shimadzu Nexera HPLC System with a SIL-30AC autosampler, a LC-30AD pump, a CTO-20AC column oven, and a CBM-20A controller (Shimadzu). The reverse-phase chromatography of compounds was accomplished with a Brownlee SPP RP-Amide column with 4.6 × 100 mm inner dimensions, a particle size of 2.7 μm, and a preceding Phenomenex C-18 guard column. […] After separation, the detection of substances was performed with an API 4000 tandem mass spectrometer (AB SCIEX, https://sciex.com/support/software-support/software-downloads), followed by quantification of results with the Analyst software (AB SCIEX, version 1.6.2). […]
(§5) Transport-mediated net uptake was determined as fold-increase of transporter-overexpressing cells over empty vector–transfected control cells.

SLC35F4 = target: T4, SLC35F4 (Homo sapiens, UniProt A4IF30); assay: Uptake ratio screen, SLC35F4-overexpressing HEK293 over empty vector cells; assay type: cell-based; set-up: by amplifying the entire gene-of-interest within the HEK293 genome via a long-range PCR; details: 2.5 μM, 2 min
T4 sequence (A4IF30 1-521): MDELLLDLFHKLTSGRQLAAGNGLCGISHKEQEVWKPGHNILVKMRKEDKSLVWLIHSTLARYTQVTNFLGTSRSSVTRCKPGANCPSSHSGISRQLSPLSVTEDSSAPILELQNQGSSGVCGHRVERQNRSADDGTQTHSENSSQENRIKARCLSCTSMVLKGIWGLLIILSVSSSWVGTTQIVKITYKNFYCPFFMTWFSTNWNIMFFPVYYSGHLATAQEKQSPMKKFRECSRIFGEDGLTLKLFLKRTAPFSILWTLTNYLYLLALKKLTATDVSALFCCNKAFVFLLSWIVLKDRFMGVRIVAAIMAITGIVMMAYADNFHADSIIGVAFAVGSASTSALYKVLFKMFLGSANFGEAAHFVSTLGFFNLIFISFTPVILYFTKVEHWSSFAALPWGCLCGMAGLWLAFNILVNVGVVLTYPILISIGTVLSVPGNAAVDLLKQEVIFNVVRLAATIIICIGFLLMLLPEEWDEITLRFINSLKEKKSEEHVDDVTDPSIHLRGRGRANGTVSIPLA
Method: as §1, §4
(§6) The intracellular drug concentrations after transport experiments were analyzed by high-performance liquid chromatography coupled to tandem mass spectrometry analysis. The HPLC consisted of a Shimadzu Nexera HPLC System with a SIL-30AC autosampler, a LC-30AD pump, a CTO-20AC column oven, and a CBM-20A controller (Shimadzu). The reverse-phase chromatography of compounds was accomplished with a Brownlee SPP RP-Amide column with 4.6 × 100 mm inner dimensions, a particle size of 2.7 μm, and a preceding Phenomenex C-18 guard column. The mobile phase was composed of an organic additive with acetonitrile:methanol 6:1 (v/v) in total concentrations between 3% and 50% (v/v) and 0.1% (v/v) formic acid in the aqueous component of the eluent. During separation, the column oven was held at 40 °C and the mobile phase was maintained at a flow rate of 300 or 400 μl/min. After separation, the detection of substances was performed with an API 4000 tandem mass spectrometer (AB SCIEX, https://sciex.com/support/software-support/software-downloads), followed by quantification of results with the Analyst software (AB SCIEX, version 1.6.2). The composition of chromatographic conditions, as well as detailed mass spectrometric detection parameters, are listed in Table S5.
as §5

SLC35F5 = target: T5, SLC35F5 (Homo sapiens, UniProt Q8WV83); assay: Uptake ratio screen, SLC35F5-overexpressing HEK293 over empty vector cells; assay type: cell-based; set-up: by amplifying the entire gene-of-interest within the HEK293 genome via a long-range PCR; details: 2.5 μM, 2 min
T5 sequence (Q8WV83 1-523): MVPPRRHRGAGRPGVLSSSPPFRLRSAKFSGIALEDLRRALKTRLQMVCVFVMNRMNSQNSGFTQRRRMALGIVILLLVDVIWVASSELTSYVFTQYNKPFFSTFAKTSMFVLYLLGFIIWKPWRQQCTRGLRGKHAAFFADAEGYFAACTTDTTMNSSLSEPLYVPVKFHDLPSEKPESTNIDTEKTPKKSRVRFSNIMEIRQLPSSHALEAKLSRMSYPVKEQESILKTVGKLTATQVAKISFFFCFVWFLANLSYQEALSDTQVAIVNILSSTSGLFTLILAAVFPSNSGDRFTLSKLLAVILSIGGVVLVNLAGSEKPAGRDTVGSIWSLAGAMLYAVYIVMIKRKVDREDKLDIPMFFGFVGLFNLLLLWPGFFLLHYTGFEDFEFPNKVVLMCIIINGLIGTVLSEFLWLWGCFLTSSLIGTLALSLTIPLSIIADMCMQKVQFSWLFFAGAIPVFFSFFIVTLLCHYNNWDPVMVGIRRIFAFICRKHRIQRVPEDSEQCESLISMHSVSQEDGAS
Method: as §1, §4, §6, §5

SLC19A3 = target: T6, SLC19A3 (Homo sapiens, UniProt Q9BZV2); assay: Uptake ratio screen, SLC19A3-overexpressing HEK293 over empty vector cells; assay type: cell-based; details: 2.5 μM, 2 min
T6 construct: expressed in transfected cells
T6 sequence (Q9BZV2 whole entry): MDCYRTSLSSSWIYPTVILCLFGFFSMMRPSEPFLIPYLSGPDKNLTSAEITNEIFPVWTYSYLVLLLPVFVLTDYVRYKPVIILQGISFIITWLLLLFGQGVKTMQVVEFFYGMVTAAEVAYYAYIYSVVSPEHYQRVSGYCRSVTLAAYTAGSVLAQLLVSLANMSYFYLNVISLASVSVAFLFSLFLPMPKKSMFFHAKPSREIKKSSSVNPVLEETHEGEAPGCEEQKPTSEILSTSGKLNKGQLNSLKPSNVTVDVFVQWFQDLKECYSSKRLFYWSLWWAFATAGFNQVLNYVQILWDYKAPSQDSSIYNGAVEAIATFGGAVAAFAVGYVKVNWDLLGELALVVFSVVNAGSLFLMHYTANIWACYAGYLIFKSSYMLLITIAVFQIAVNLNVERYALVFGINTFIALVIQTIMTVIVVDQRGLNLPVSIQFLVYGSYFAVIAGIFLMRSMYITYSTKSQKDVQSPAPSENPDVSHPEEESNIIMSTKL
Method: as §1, §2, §3

SLC22A15 = target: T7, SLC22A15 (Homo sapiens, UniProt Q8IZD6); assay: Uptake ratio screen, SLC22A15-overexpressing HEK293 over empty vector cells; assay type: cell-based; details: 2.5 μM (nicotine 10 μM), 2 min
T7 construct: by amplifying the entire gene-of-interest within the HEK293 genome via a long-range PCR
T7 sequence (Q8IZD6 whole entry): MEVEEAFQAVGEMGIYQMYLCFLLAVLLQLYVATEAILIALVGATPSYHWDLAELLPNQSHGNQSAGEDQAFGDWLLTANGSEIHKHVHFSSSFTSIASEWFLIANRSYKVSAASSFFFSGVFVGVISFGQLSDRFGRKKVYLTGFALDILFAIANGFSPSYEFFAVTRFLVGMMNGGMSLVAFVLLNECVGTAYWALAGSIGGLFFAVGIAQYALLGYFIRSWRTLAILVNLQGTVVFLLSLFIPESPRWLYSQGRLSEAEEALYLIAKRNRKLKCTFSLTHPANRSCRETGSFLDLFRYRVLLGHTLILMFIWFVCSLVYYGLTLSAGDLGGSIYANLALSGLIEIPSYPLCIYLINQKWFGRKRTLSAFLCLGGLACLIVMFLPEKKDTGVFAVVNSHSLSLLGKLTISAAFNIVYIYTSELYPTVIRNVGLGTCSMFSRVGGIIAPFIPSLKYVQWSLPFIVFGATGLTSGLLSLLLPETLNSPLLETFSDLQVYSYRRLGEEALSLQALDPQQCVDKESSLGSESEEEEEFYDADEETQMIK
Method: as §1, §4, §6, §5

SLC38A10 = SLC38A10 (Homo sapiens, UniProt Q9HBR0); details: SLC38A10, HEK293, net uptake over empty vector cells
SLC38A10, sequence (Q9HBR0 whole entry): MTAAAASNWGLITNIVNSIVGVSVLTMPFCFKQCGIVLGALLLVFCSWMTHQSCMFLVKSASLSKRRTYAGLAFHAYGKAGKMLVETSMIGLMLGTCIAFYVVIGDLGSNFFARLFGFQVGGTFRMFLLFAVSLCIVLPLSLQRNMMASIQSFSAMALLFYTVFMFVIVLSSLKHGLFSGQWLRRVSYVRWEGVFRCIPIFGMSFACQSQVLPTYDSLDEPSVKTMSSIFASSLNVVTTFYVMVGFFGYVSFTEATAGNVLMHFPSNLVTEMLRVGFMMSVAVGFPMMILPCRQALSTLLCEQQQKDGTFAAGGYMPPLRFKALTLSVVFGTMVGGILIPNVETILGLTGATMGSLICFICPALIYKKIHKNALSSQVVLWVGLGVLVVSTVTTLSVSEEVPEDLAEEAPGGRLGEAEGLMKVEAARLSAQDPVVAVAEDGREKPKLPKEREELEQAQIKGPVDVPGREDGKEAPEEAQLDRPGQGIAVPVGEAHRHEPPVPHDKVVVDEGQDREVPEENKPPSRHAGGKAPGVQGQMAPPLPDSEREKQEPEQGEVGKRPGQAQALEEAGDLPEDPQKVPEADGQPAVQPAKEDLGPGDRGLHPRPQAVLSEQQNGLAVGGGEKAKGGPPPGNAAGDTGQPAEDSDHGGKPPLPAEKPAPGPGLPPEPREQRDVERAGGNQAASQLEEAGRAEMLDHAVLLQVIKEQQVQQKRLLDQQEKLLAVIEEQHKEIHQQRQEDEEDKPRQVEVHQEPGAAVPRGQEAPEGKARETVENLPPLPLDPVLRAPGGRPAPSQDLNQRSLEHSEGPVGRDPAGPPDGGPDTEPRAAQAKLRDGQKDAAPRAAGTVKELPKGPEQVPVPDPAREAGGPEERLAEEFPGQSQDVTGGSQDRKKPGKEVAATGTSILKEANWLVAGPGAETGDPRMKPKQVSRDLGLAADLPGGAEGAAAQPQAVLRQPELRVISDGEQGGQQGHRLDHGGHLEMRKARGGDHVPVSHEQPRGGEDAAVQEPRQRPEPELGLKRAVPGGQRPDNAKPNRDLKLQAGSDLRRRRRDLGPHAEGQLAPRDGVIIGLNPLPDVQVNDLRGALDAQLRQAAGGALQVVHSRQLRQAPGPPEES

SLC35G3 [3] = target: T1, SLC35G3; details: ratio of Vmax over KM
[4] = 2.5 μM substrate, 2 min, HEK293

T1 sequence (Q8N808 whole entry): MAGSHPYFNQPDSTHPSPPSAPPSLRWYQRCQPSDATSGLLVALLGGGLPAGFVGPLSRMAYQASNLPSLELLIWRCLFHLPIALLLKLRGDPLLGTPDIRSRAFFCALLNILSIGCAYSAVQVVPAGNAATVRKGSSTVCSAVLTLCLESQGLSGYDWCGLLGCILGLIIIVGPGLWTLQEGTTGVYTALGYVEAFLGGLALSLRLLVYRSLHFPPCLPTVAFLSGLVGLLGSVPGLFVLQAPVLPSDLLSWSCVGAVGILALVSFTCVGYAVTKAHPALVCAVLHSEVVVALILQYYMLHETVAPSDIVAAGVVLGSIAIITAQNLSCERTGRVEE

## CCCNC(C)C(=O)Nc1c(C)csc1C(=O)OC (centres unmarked) [Articaine]
SLC35G3 [1]
  Clint (±SEM): 2.04 (±2.24) μl × mg protein^-1 × min^-1
SLC35G3 [2]; [4]
  Uptake data for SLC35G3, mean value (fold-increase over empty vector control): 2.91

## COC(=O)C(c1ccccc1)C1CCCCN1 (centres unmarked) [Methylphenidate]
SLC22A18
  Uptake by SLC22A18 (in words): newly identified substrates
SLC19A2
  Uptake by SLC19A2 (in words): enhance cell uptake
SLC35G3 [2]; [4]
  Uptake data for SLC35G3, mean value (fold-increase over empty vector control): 1.31
SLC35F4
  Uptake by SLC35F4 (in words): enhanced cell uptake
SLC35F5
  Uptake by SLC35F5 (in words): highest uptake rates

## C[n+]1ccc(-c2ccccc2)cc1 [MPP^+, 1-methyl-4-phenylpyridinium]
SLC19A3
  Uptake by SLC19A3 (in words): moderate

## C[N+](C)(C)[C@@H](Cc1c[nH]c(=S)[nH]1)C(=O)[O-] [Ergothionine]
SLC22A15
  Uptake by SLC22A15 (in words): did not measure significant uptake
SLC35G3 [2]; [4]
  Uptake data for SLC35G3, mean value (fold-increase over empty vector control): 1.67

## CC(N)Cc1ccccc1 (centres unmarked) [Amphetamine]
SLC35G3 [2]; [4]
  Uptake data for SLC35G3, mean value (fold-increase over empty vector control): 1.28
SLC38A10
  Vmax (±SEM): 97.4 (±11.1) pmol × mg protein^-1 × min^-1

## CNC(C)Cc1ccc2c(c1)OCO2 (centres unmarked) [MDMA, 3,4-methylenedioxymethamphetamine]
SLC22A15
  Uptake by SLC22A15 (in words): significantly increased the uptake
SLC35G3 [2]
  Uptake data for SLC35G3, mean value (fold-increase over empty vector control): 1.58
SLC35F5
  Uptake by SLC35F5 (in words): highest uptake rates
SLC35G3 [3]
  Clint (±SEM): 4.31 (±2.26) μl × mg protein^-1 × min^-1

## CN(C)CCCN1c2ccccc2CCc2ccccc21 [Imipramine]
SLC35G3 [2]; [4]
  Uptake data for SLC35G3, mean value (fold-increase over empty vector control): 1.40
